Laboratory results published in patent US20120107323A1, “KINASE PROTEIN BINDING INHIBITORS” (University of Florida, priority 2009, published 2012).

Legend:
[1] = system: PARP, caspase-9, caspase 8; assay: Western blot of biochemical markers of the apoptotic pathway; assay type: cell-based
[2] = system: TE3 esophageal cancer cells; assay: Cell viability (MTT), TE3; assay type: cell-based; details: TE3, 72 hours; read-out: IC50 of INT2-31, cell viability
Procedure: (§1) Cell viability (MTT) and CFSE Proliferation assay: Cells were plated in 96-well plates and let adhere overnight. After cell treatment, cell viability was measured by 3-(4,5-dimethylthiazol-2-yl)-2,5-diphenyl tetrazolium bromide (MTT) assay (CellTiter 96® Aqueous, Promega, Madison, Wis.).
(§2) Cell viability and detachment assays: After cells were treated with siRNA transfection, cell viability was measured by 3-(4,5-dimethylthiazol2-yl)-2,5-diphenyl tetrazolium bromide (MTT) assay (CellTiter 96® AQueous, Promega, Madison, Wis.). Briefly, 20 μl of the tetrazolium compound was added to each well. The cells were then incubated at 37° C. for 1 h. The plate was read at 490 nm with a plate reader to determine the viability. In detachment assays, detached and attached cells were harvested separately and counted in a hemocytometer. The percentage of detachment was calculated by dividing the number of detached cells by the total number of cells. Apoptosis assays: After treatment, attached and detached cells were collected, counted and prepared for terminal uridine deoxynucleotidyl transferase (TUNEL) assay by utilizing an APO-BRDU kit (BD Pharmingen, San Diego, Calif.) according to the manufacturer's instructions. Stained cells were analyzed with a fluorescence-activated cell sorting-Calibur flow cytometer (BD Biosciences). […] Apoptotic cells were also analyzed by Hoechst staining. […]

[3] = system: esophageal patient #5 adenocarcinoma tumor; assay: Esophageal patient #5 xenograft; assay type: in vivo, mice
Source text: For tumor samples from human patients with esophageal or pancreatic cancer, the University of Florida IACUC approved the following protocol (IACUC Study #2000902767). A total of 25 patients, 10 with pancreatic cancer and 15 with esophageal cancer have been identified and implanted into nude mice. Initially small pieces (0.3×0.3×0.3 cm) from fresh pancreatic and esophageal human tumor samples were obtained from surgical specimens of patients operated at the University of Florida Shands Hospital, and implanted subcutaneously in-group of 2 mice for each patient. For esophageal cancer specimens, when one of them has reached 1.5 cc, it was excised and was cut into small pieces of (0.3×0.3×0.3 cm), and transplanted subcutaneously into another 10 mice. When tumors reached ˜100 mm^3, mice were randomized in the following 2 groups, with 5 mice in each group: • Group 1: Control: no treatment. • Group 2: INT2-31 (Compound 31): 50 mg/kg/day in 50 μL by i.p administration for 21 days.
Mice were euthanized 30-40 days after tumor innoculation and tumor and tissue collected. For inhibition of tumor growth in our subcutaneous model, tumor volumes (length×width×height×p/6) and body weights were determined daily including weekends and holidays, to monitor tumor growth and evaluate overall clinical condition, taking into account weight loss and indications of pain, distress, or abnormal behavior and physiology. Experiments were terminated when the mean control tumor volume was 1.5 cc (approximately 30-40 days).
Immunohistochemistry: Xenograft tumor tissue was fixed in 10% formalin and embedded in paraffin. For Ki-67 staining, samples underwent deparaffinization and antigen retrieval and incubated with the primary antibody, Ki-67 (Dako M7240), at 1:200 concentration overnight at 4° C. The tissues were stained with the chromogen DAB and counterstained with hematoxylin and 1% TBS.
Subsequently, we evaluated the inhibition of in vivo tumor growth of esophageal patient #5 specimen was evaluated. […]

[4] = system: KYSE140 esophageal cancer cells; assay: Cell viability (MTT), KYSE140; assay type: cell-based
Procedure: as §1
Cell viability and detachment assays: After cells were treated with siRNA transfection, cell viability was measured by 3-(4,5-dimethylthiazol2-yl)-2,5-diphenyl tetrazolium bromide (MTT) assay (CellTiter 96® AQueous, Promega, Madison, Wis.). Briefly, 20 μl of the tetrazolium compound was added to each well. The cells were then incubated at 37° C. for 1 h. The plate was read at 490 nm with a plate reader to determine the viability. In detachment assays, detached and attached cells were harvested separately and counted in a hemocytometer. The percentage of detachment was calculated by dividing the number of detached cells by the total number of cells. Apoptosis assays: After treatment, attached and detached cells were collected, counted and prepared for terminal uridine deoxynucleotidyl transferase (TUNEL) assay by utilizing an APO-BRDU kit (BD Pharmingen, San Diego, Calif.) according to the manufacturer's instructions. Stained cells were analyzed with a fluorescence-activated cell sorting-Calibur flow cytometer (BD Biosciences). Calculation of the percentage of apoptotic cells in the sample was completed with CellQuest software (BD Biosciences). Apoptotic cells were also analyzed by Hoechst staining. Hoechst 33342 ([…]) was added to the fixed cells and the specimens were mounted on glass coverslips. The slides were viewed under the Zeiss microscope for apoptotic nuclei. The percent of apoptotic cells was calculated as the ratio of apoptotic cells to total number of cells.
In addition, the effect of INT2-31 on cell viability of esophageal, pancreatic and breast cancer cell lines was analyzed and the IC50 value for each cell line was determined, as shown in Table 1. […] Similar to melanoma results, INT2-31 inhibits viability more in cancer cells compared to normal cells. Sensitivity of the cells to INT2-31 varied and directly correlated to the FAK and IGF-1R expression level of the cells.

[5] = system: TE9 esophageal cancer cells; assay: Cell viability (MTT), TE9; assay type: cell-based; details: TE9, 72 hours; read-out: IC50 of INT2-31, cell viability
Procedure: as §1, §2

SMILES: CSc1ncnc2c1ccn2C1O[C@H](COP(=O)(O)O)[C@@H](O)[C@H]1O (stereo partly drawn) [INT2-31, 4-(Methylthio)-7-(5-O-phosphono-D-ribofuranosyl)-{7H-Pyrrolo[2,3-d]pyrimidine}]
- PARP and caspase-9 cleavage ([1]; 48 hours of treatment): PARP and caspase-9 cleavage
- caspase 8 levels ([1]; Western blot): no significant effect
- IC50 [2]: 5.6 µM
- body weights between animals in each group ([3]; 50 mg/kg daily intraperitoneal): no significant difference
- tumor growth compared to PBS control ([3]; 50 mg/kg daily intraperitoneal, 21 days, p<0.05): significant decrease
- percent of cells reactive to Ki67 ([3]; 50 mg/kg vs PBS group): significantly decreased
- IC50 ([4]; Homo sapiens, KYSE-140, KYSE140, 72 hours, read-out: IC50 of INT2-31, cell viability): 2.5 µM
- effect of combination with 5-FU on cell viability ([4]; KYSE 140, 0.5 and 1 μM INT2-31): synergistic effects
- sensitivity of cells to single-agent treatment ([4]; KYSE 140, 72 hours): sensitive
- IC50 [5]: 3.6 µM
